# Test results as given in patent US20260327225A1, “HETEROCYCLIC COMPOUNDS AS TRIGGERING RECEPTOR EXPRESSED ON MYELOID CELLS 2 AGONISTS AND METHODS OF USE” (VIGIL NEUROSCIENCE, INC., priority 2023, published 2026).
# Biological target: T1, human TREM2 (Homo sapiens, UniProt Q9NZC2)
# T1 construct: expressed in transfected cells; host or cells: HEK293T-hTREM2 cells (HEK cell line expressing human TREM2 and DAP12)
# Assay: TREM2 agonist potency by cellular phosphorylation of Syk (AlphaLisa) in HEK293T-hTREM2 cells expressing human TREM2 and DAP12
# Type: cell-based
# Details: HEK293 cells expressing hTREM2 and DAP12; 45 minutes at room temperature; Syk phosphorylation, AlphaLisa; read-out: hTREM2 EC50
# Experimental: In vitro Measurement of Triggering Receptor Expressed on Myeloid Cells 2 activity using cellular phosphorylation of Spleen Tyrosine Kinase (“Syk”) Assays
# Measurement of TREM2 agonist potency was done using a HEK cell line expressing human TREM2 and DAP12 (HEK293T-hTREM2 cells). Binding of small molecules to, and activation of, TREM2 increases the phosphorylation of Syk. The resultant levels of Syk phosphorylation are measured using a commercial AlphaLisa reagent kit. To perform the assay, HEK-hTREM2 cells were plated at 14,000 cells per well in a 384 well plate, in 25 μL of complete growth media and incubated at 37° C., 5% CO2 for 20-24 hours.
# Prior to the assay, test compounds were diluted in the 384 well plates in assay buffer and allowed to equilibrate for 30 minutes. Growth media was removed from cell plates by inversion on blotting paper, and 25 μL of test articles in assay buffer was added to cells. Cells were incubated for 45 minutes at room temperature. After 45 minutes, assay buffer was removed and 10 μL of lysis buffer was added. Plates were shaken for 20 minutes at 350 RPM at room temperature. After complete lysis, AlphaLisa reagents were added to the lysate, and fluourescence intensity was measured using a Perkin Elmer Envision plate reader. Intensities were used to generate a standard curve, and % activation was calculated. Curve fitting was performed using Prism v9 software, log(agonist) vs response—variable slope (four parameters), and EC50s were calculated from the curve fit.
# The results presented in Table B have been generated with the in vitro assay described above. This assay may be used to test any of the compounds described herein to assess and characterize a compound's ability to act as an agonist of TREM2.
# T1 sequence (Q9NZC2 19-230): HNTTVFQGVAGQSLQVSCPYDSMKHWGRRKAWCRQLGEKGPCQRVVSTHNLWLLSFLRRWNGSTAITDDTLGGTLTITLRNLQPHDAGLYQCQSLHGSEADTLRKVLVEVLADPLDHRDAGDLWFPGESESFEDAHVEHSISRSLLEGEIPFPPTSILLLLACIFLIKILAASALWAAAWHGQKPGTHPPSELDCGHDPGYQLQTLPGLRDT
# T1 sequence (O43914 22-113 partner): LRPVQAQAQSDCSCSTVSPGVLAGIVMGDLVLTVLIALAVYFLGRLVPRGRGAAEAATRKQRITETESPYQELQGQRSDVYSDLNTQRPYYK
row,SMILES,EC50
1,"Cc1nc2nc([C@H]3CCO[C@@H](c4cnn(C5CC5)c4)C3)nc(-c3ccc(F)cc3F)c2cc1C(=O)O [Example 9, 4-(2,4-difluorophenyl)-7-methyl-2-[(2R,4S)-2-(1-cyclopropylpyrazol-4-yl)tetrahydropyran-4-yl]pyrido[2,3-d]pyrimidine-6-carboxylic acid]",> 0.5 µM
2,"Cc1nnc(-c2cc3c(-c4ccc(F)cc4F)nc(N4C[C@@H](C)O[C@@H](c5cnn(C6CC6)c5)C4)nc3nc2C)s1 [Example 10, (2S,6R)-2-(1-cyclopropylpyrazol-4-yl)-4-[4-(2,4-difluorophenyl)-7-methyl-6-(5-methyl-1,3,4-thiadiazol-2-yl)pyrido[2,3-d]pyrimidin-2-yl]-6-methyl-morpholine]",< 0.1 µM
3,"Cc1cc(-c2cc3c(-c4ccc(F)cc4F)nc(N4C[C@@H](C)O[C@@H](c5cnn(C6CC6)c5)C4)nc3nc2C)on1 [Example 11, (2S,6R)-2-(1-cyclopropylpyrazol-4-yl)-4-[4-(2,4-difluorophenyl)-7-methyl-6-(3-methylisoxazol-5-yl)pyrido[2,3-d]pyrimidin-2-yl]-6-methyl-morpholine]",< 0.1 µM
4,"Cc1nnc(-c2cc3c(-c4ccc(F)cc4F)nc(N4C[C@@H](C)O[C@@H](c5cnn(C6CC6)c5)C4)nc3nc2C)o1 [Example 12, (2S,6R)-2-(1-cyclopropylpyrazol-4-yl)-4-[4-(2,4-difluorophenyl)-7-methyl-6-(5-methyl-1,3,4-oxadiazol-2-yl)pyrido[2,3-d]pyrimidin-2-yl]-6-methyl-morpholine]",< 0.1 µM
5,"Cc1cnc(-c2cc3c(-c4ccc(F)cc4F)nc(N4C[C@@H](C)O[C@@H](c5cnn(C6CC6)c5)C4)nc3nc2C)o1 [Example 13, (2S,6R)-2-(1-cyclopropylpyrazol-4-yl)-4-[4-(2,4-difluorophenyl)-7-methyl-6-(5-methyloxazol-2-yl)pyrido[2,3-d]pyrimidin-2-yl]-6-methyl-morpholine]",< 0.1 µM
6,"Cc1noc(-c2cc3c(-c4ccc(F)cc4F)nc(N4CCCC(N5CCOCC5)C4)nc3nc2C)n1 (centres unmarked) [Example 15, 4-[1-[4-(2,4-difluorophenyl)-7-methyl-6-(3-methyl-1,2,4-oxadiazol-5-yl)pyrido[2,3-d]pyrimidin-2-yl]-3-piperidyl]morpholine]",> 0.5 µM
7,"Cc1nc2nc([C@H]3CCO[C@@H](c4cnn(C5CC5)c4)C3)nc(-c3ccc(F)cc3F)c2cc1C#N [Example 18, 2-[(2R,4S)-2-(1-cyclopropylpyrazol-4-yl)tetrahydropyran-4-yl]-4-(2,4-difluorophenyl)-7-methyl-pyrido[2,3-d]pyrimidine-6-carbonitrile]",< 0.1 µM
8,"Cc1nc2nc(N3C[C@@H](C)O[C@@H](c4cnn(C5CC5)c4)C3)nc(-c3ccc(F)cc3F)c2cc1C#N [Example 21, 2-[(2S,6R)-2-(1-cyclopropylpyrazol-4-yl)-6-methyl-morpholin-4-yl]-4-(2,4-difluorophenyl)-7-methyl-pyrido[2,3-d]pyrimidine-6-carbonitrile]",< 0.1 µM
9,"Cc1noc(-c2cc3c(C45CC(C(F)(F)F)(C4)C5)nc(N4C[C@@H](C)O[C@@H](c5cnn(C6CC6)c5)C4)nc3nc2C)n1 [Example 22, (2S,6R)-2-(1-cyclopropyl-pyrazol-4-yl)-6-methyl-4-[7-methyl-6-(3-methyl-1,2,4-oxadiazol-5-yl)-4-[3-(trifluoromethyl)-1-bicyclo[1.1.1]pentanyl]-pyrido[2,3-d]pyrimidin-2-yl]morpholine]",< 0.1 µM
10,"Cc1nnc(-c2cc3c(C45CC(C(F)(F)F)(C4)C5)nc([C@H]4CCO[C@@H](c5cnn(C6CC6)c5)C4)nc3nc2C)o1 [Example 23, 2-(2-((2R,4S)-2-(1-cyclopropyl-1H-pyrazol-4-yl)tetrahydro-2H-pyran-4-yl)-7-methyl-4-(3-(trifluoromethyl)bicyclo[1.1.1]pentan-1-yl)pyrido[2,3-d]pyrimidin-6-yl)-5-methyl-1,3,4-oxadiazole]",< 0.1 µM
11,"Cc1nc2nc([C@H]3CCO[C@@H](c4cnn(C5CC5)c4)C3)nc(C34CC(C(F)(F)F)(C3)C4)c2cc1F [Example 24, 2-[(2R,4S)-2-(1-cyclopropylpyrazol-4-yl)tetrahydropyran-4-yl]-6-fluoro-7-methyl-4-[3-(trifluoromethyl)-1-bicyclo[1.1.1]pentanyl]-pyrido[2,3-d]pyrimidine]",< 0.1 µM
12,"Cc1nc2nc(N3C[C@@H](C)O[C@@H](c4cnn(C5CC5)c4)C3)nc(C34CC(C(F)(F)F)(C3)C4)c2cc1C#N [Example 25, 2-[(2S,6R)-2-(1-cyclopropylpyrazol-4-yl)-6-methyl-morpholin-4-yl]-7-methyl-4-[3-(trifluoromethyl)-1-bicyclo[1.1.1]pentanyl]pyrido[2,3-d]pyrimidine-6-carbonitrile]",< 0.1 µM
13,"Cc1nc2nc([C@H]3CCO[C@@H](c4cnn(C5CC5)c4)C3)nc(C34CC(C(F)(F)F)(C3)C4)c2cc1-c1cnn(C)c1 [Example 26, 2-((2R,4S)-2-(1-cyclopropyl-1H-pyrazol-4-yl)tetrahydro-2H-pyran-4-yl)-7-methyl-6-(1-methyl-1H-pyrazol-4-yl)-4-(3-(trifluoromethyl)bicyclo[1.1.1]pentan-1-yl)pyrido[2,3-d]pyrimidine]",< 0.1 µM
14,"Cc1nc2nc([C@H]3CCO[C@@H](c4cnn(C5CC5)c4)C3)nc(C34CC(C(F)(F)F)(C3)C4)c2cc1-c1ccn(C)n1 [Example 27, 2-((2R,4S)-2-(1-cyclopropyl-1H-pyrazol-4-yl)tetrahydro-2H-pyran-4-yl)-7-methyl-6-(1-methyl-1H-pyrazol-3-yl)-4-(3-(trifluoromethyl)-bicyclo[1.1.1]pentan-1-yl)pyrido[2,3-d]pyrimidine]",0.1 to 0.5 µM
15,"Cc1nc2nc([C@H]3CCO[C@@H](c4cnn(C5CC5)c4)C3)nc(C34CC(C(F)(F)F)(C3)C4)c2cc1-c1cn(C)nn1 [Example 28, 2-((2R,4S)-2-(1-cyclopropyl-1H-pyrazol-4-yl)tetrahydro-2H-pyran-4-yl)-7-methyl-6-(1-methyl-1H-1,2,3-triazol-4-yl)-4-(3-(trifluoromethyl)-bicyclo[1.1.1]pentan-1-yl)pyrido[2,3-d]pyrimidine]",> 0.5 µM
16,"Cc1nc2nc([C@H]3CCO[C@@H](c4cnn(C5CC5)c4)C3)nc(C34CC(C(F)(F)F)(C3)C4)c2cc1C#N [Example 29, 2-[(2R,4S)-2-(1-cyclopropylpyrazol-4-yl)tetrahydropyran-4-yl]-7-methyl-4-[3-(trifluoromethyl)-1-bicyclo[1.1.1]pentanyl]pyrido[2,3-d]pyrimidine-6-carbonitrile]",< 0.1 µM
17,"Cc1nc2nc([C@H]3CCO[C@@H](c4cnn(C5CC5)c4)C3)nc(C34CC(C(F)(F)F)(C3)C4)c2cc1S(C)(=O)=O [Example 31, 2-[(2R,4S)-2-(1-cyclopropylpyrazol-4-yl)tetrahydropyran-4-yl]-7-methyl-6-methylsulfonyl-4-[3-(trifluoromethyl)-1-bicyclo[1.1.1]pentanyl]pyrido[2,3-d]pyrimidine]",< 0.1 µM
18,"Cc1nc2nc([C@H]3CCO[C@@H](c4cnn(C5CC5)c4)C3)nc(C34CC(C(F)(F)F)(C3)C4)c2cc1[S+](C)[O-] (stereo partly drawn) [Example 32, 2-[(2R,4S)-2-(1-cyclopropylpyrazol-4-yl)tetrahydropyran-4-yl]-7-methyl-6-methylsulfinyl-4-[3-(trifluoromethyl)-1-bicyclo[1.1.1]pentanyl]pyrido[2,3-d]pyrimidine]",< 0.1 µM
19,"Cc1noc(-c2cc3c(C4CCCCC4)nc(N4C[C@@H](C)O[C@@H](c5cnn(C6CC6)c5)C4)nc3nc2C)n1 [Example 33, (2S,6R)-4-[4-cyclohexyl-7-methyl-6-(3-methyl-1,2,4-oxadiazol-5-yl)-pyrido[2,3-d]pyrimidin-2-yl]-2-(1-cyclopropylpyrazol-4-yl)-6-methyl-morpholine]",< 0.1 µM
20,"Cc1nc2nc(N3C[C@@H](C)O[C@@H](c4cnn(C5CC5)c4)C3)nc(C3CCCCC3)c2cc1C#N [Example 35, 4-cyclohexyl-2-[(2S,6R)-2-(1-cyclopropylpyrazol-4-yl)-6-methyl-morpholin-4-yl]-7-methyl-pyrido[2,3-d]pyrimidine-6-carbonitrile]",< 0.1 µM
21,"Cc1nc2nc(N3C[C@@H](C)O[C@@H](c4cnn(C5CC5)c4)C3)nc(C3CCC3)c2cc1C#N [Example 42, 4-cyclobutyl-2-((2S,6R)-2-(1-cyclopropyl-1H-pyrazol-4-yl)-6-methylmorpholino)-7-methylpyrido[2,3-d]pyrimidine-6-carbonitrile]",0.1 to 0.5 µM
22,"Cc1noc(-c2cc3c(C4CCCCC4)nc(N4CCO[C@@H](c5cnn(C)c5)C4)nc3nc2C)n1 [Example 44, (2S)-4-[4-cyclohexyl-7-methyl-6-(3-methyl-1,2,4-oxadiazol-5-yl)-pyrido [2,3-d]-pyrimidin-2-yl]-2-(1-methyl-pyrazol-4-yl) morpholine]",0.1 to 0.5 µM
23,"Cc1nc2nc(N3CCO[C@@H](c4cnn(C)c4)C3)nc(C3CCCCC3)c2cc1C#N [Example 45, 4-cyclohexyl-7-methyl-2-[(2S)-2-(1-methyl-pyrazol-4-yl)morpholin-4-yl]pyrido[2,3-d]pyrimidine-6-carbonitrile]",0.1 to 0.5 µM
